From patent US11357651B2, “Stent assembly and method of preparing the stent assembly” (Nanyang Technological University, priority 2015, dated 2022)

Test system: human bladder stroma fibroblasts
Assay: Cell work: fibroblast viability (prestoblue) after mitomycin C treatment
Type: cell-based
Settings: 3 days of drug treatment
Procedure: FIGS. 13(A) and (B) are graphs showing (A) relative cell count vs MMC concentrations (μg/mL), and (B) dose-response curve.
In each well of a 96 well cell culture plate, 3000 human bladder stroma fibroblasts cells are seeded. After one day of seeding, different concentrations of mitomycin C dissolved in cell media (200 μL) were added to the well. After 3 days of drug treatment, the drug media was removed and the well added with 70 μL of a cell viability reagent, prestoblue, in the ratio of 9:1 (cell media: prestoblue).

Compound: CO[C@@]12[C@H](COC(N)=O)C3=C(C(=O)C(C)=C(N)C3=O)N1C[C@@H]1N[C@@H]12 [MMC, mitomycin C]
- GI50: about 0.115 μg/mL
- minimum concentration of MMC required to cause death of / inhibit proliferation of fibroblasts: 0.01 µg/mL
